The results in this text go back to US6514965B1, “Substituted 1-benzazepines and derivatives thereof” (Antex Pharma Inc., priority 1999, dated 2003).

For one data set, the system named is bacteria. In words: MIC, broth dilution method (antibacterial activity). Format: cell-based. To be noted: optical density of organisms with and without test compound, bacterial species not stated. Here is the method:
Antibacterial activity can be determined by several standard methods well known by those skilled in the art, including disc diffusions methods, broth dilution minimal inhibitory concentration (MIC) methods, etc., including the detailed method outlined below.
MIC, Broth Dilution Method
Cultures of bacteria are initially brought up from the freezer stocks onto chocolate agar plates by streaking a loop-full, then incubated for 18 hours at 35-37° C. in a 5% CO2 incubator.
Five to 10 colonies are picked from the chocolate agar plate for subculture to Brain-Heart Infusion (BHI) broth or Mueller Hinton broth or BHI containing 4% serum and incubated as described.
Evaluate the optical density of the organisms with and without the test compound. The optical density of the organisms in the presence of an active compound will be less than the optical density of the same organism untreated. The activity of the compounds is described as either negative or the lowest concentration inhibiting growth. The results are depicted in Table III, where +/− represents the least activity and ++++ represents the greatest activity.

The term melting point denotes the temperature of the solid-liquid transition. Turning to `CCOC(=O)C1CCc2ccc(OC)cc2NC1=O` (racemic) [Example 3, 3(R,S)-Ethoxycarbonyl-8-methoxy-2,3,4,5-tetrahydro-1H-1-benzazepine-2-one], the melting point fell in the range of 89 to 91 °C. For `CCN1C(=O)C(C(=O)O)CCc2ccc(OC)cc21` (racemic) [Example 5, 3(R,S)-Carboxyl-1-ethyl-8-methoxy-2,3,4,5-tetrahydro-1H-1-benzazepine-2-one], the melting point was 120 to 121 °C. The same measure, in the same setting: as for `COc1ccc2c(c1)NC(=O)C(C(=O)OC(C)(C)C)CC2` (racemic) [Example 11, 3(R,S)-tert-Butoxycarbonyl-8-methoxy-2,3,4,5-tetrahydro-1H-1-benzazepine-2-one], the figure is 145 to 147 °C.

As for `CCN1C(=O)C(C(=O)OC(C)(C)C)CCc2ccc(OC)cc21` (racemic) [Example 12, 3(R,S)-tert-Butoxycarbonyl-1-ethyl-8-methoxy-2,3,4,5-tetrahydro-1H-1-benzazepine-2-one], the melting point was 132 to 133 °C. Same read-out and setting: in the case of `CCN1C(=O)C(C(=O)OC(C)(C)C)CCc2cc(Br)c(OC)cc21` (racemic) [Example 13, 7-Bromo-3(R,S)-tert-butoxycarbonyl-1-ethyl-8-methoxy-2,3,4,5-tetrahydro-1H-1-benzazepine-2-one] it was 131 to 132 °C; in that of `CCN1C(=O)C(C(=O)O)CCc2cc(N3CCNCC3)c(OC)cc21.Cl` (racemic) [Example 15, 3(R,S)-Carboxyl-1-ethyl-8-methoxy-7-(piperazin-1-yl)-2,3,4,5-tetrahydro-1H-1-benzazepine-2-one Hydrochloride], 173 to 176 °C (dec.); in that of `CCN1C(=O)C(C(=O)OC(C)(C)C)C=Cc2ccc(OC)cc21` (racemic) [Example 16, 3(R,S)-tert-Butoxycarbonyl-1-ethyl-8-methoxy-2,3-dihydro-1H-1-benzazepine-2-one], 173 to 174 °C. Same read-out and setting: as for `CCN1C(=O)C(C(=O)O)CCc2cc(Br)c(OC)cc21` (racemic) [Example 17, 7-Bromo-3(R,S)-carboxyl-1-ethyl-8-methoxy-2,3,4,5tetrahydro-1H-1-benzazepine-2-one], the figure is 188 to 189 °C (dec.); as for `CCN1C(=O)C(C(=O)OC(C)(C)C)CCc2cc(N3CCNCC3)c(OC)cc21` (racemic) [Example 18, 3(R,S)-tert-Butoxycarbonyl-1-ethyl-8-methoxy-7-(piperazin-1-yl)-2,3,4,5-tetrahydro-1H-1-benzazepine-2-one], 165 °C (dec.); as for `COc1ccc2c(c1)N(C(=O)OC(C)(C)C)C(=O)C(C(=O)OC(C)(C)C)CC2` (racemic) [Example 23, 1-tert-Butoxycarbonyl-3(R,S)-tert-butoxycarbonyl-8-methoxy-2,3,4,5-tetrahydro-1H-1-benzazepine-2-one], 91 to 92 °C. Turning to `CCN1C(=O)C(Br)(C(=O)OC)CCc2cc(Br)c(OC)cc21` (racemic) [Example 27, 3,7-Dibromo-1-ethyl-3(R,S)-methoxycarbonyl-8-methoxy-2,3,4,5-tetrahydro-1H-1-benzazepine-2-one], the melting point was 71 to 73 °C (dec.). On the same count and under the same terms, as for `COc1cc2c(cc1Br)CCC(C(=O)OC(C)(C)C)C(=O)N2Cc1cccc(F)c1` (racemic) [Example 30, 7-Bromo-3(R,S)-tert-butoxycarbonyl-1-(3-fluorobenzyl)-8-methoxy-2,3,4,5-tetrahydro-1H-1-benzazepine-2-one], the figure is 146 to 148 °C. As to `COc1cc2c(cc1N1CCN(C(=O)OCc3ccccc3)CC1)CCC(C(=O)OC(C)(C)C)C(=O)N2Cc1cccc(F)c1` (racemic) [Example 31, 7-[(4-Benzyloxycarbonyl)piperazin-1-yl]-3(R,S)-tert-butoxycarbonyl-1-(3-fluorobenzyl)-8-methoxy-2,3,4,5-tetrahydro-1H-1-benzazepine-2-one], the “Antibacterial Activity” value in the data set with bacteria is recorded as “++++”.

On to `COc1cc2c(cc1Br)CCC(C(=O)OC(C)(C)C)C(=O)N2` (racemic) [Example 32, 7-Bromo-3(R,S)-tert-butoxycarbonyl-8-methoxy-2,3,4,5-tetrahydro-1H-1-benzazepine-2-one], for which the melting point fell in the range of 207 to 208 °C.

As to `COc1ccc2c(c1)NC(=O)CCC2` [Example 2, 8-Methoxy-2,3,4,5-tetrahydro-1H-1-benzazepine-2-one], the melting point was in the range of 105 to 106 °C. `CCN1C(=O)CCCc2cc(Br)c(OC)cc21` [Example 9, 7-Bromo-1-ethyl-8-methoxy-2,3,4,5-tetrahydro-1H-1-benzazepine-2-one] yielded a melting point of 133 to 135 °C. `CCN1C(=O)CCCc2cc(N3CCN(C)CC3)c(OC)cc21` [Example 10]: in the data set on bacteria, the “Antibacterial Activity” value is “+/−”.

As for `COc1cc2c(cc1Br)CCCC(=O)N2` [Example 24, 7-Bromo-8-methoxy-2,3,4,5-tetrahydro-1H-1-benzazepine-2-one], the melting point was 180 to 182 °C.

The compound `O=C1CCCc2ccc(O)cc2N1` [Example 33, 8-Hydroxy-2,3,4,5-tetrahydro-1H-1-benzazepine-2-one] gave a melting point of 226 to 227 °C. `CC(C)(C)[Si](C)(C)Oc1ccc2c(c1)NC(=O)CCC2` [Example 36, 8-(tert-butyldimethylsilyloxy)-2,3,4,5-tetrahydro-1H-1-benzazepine-2-one]: the “Antibacterial Activity” value with bacteria was “++++”.
